Measured values from ChEMBL document CHEMBL3885861, “Open TG-GATES”.

Organism: Rattus norvegicus
Assay: Open TG-GATES - Regimen: Single
Format: toxicity, organism-based, Sprague-Dawley
Parameters: regimen Single, gender Male, age 6 weeks
Conditions: in vivo, po, route gavage; for APTT / Bas / Eos / Fbg / Hb / Ht / Lym / MCH / MCHC / Mono / Neu / Plat / RBC / Ret / WBC: tissue Blood; for KIDNEY_L / KIDNEY_R / KIDNEY_TOTAL: tissue Kidney; for LIVER: tissue Liver; for ALP / ALT / AST / BUN / CRE / Ca / Cl / DBIL / GLC / IP / K / LDH / Na / PL / RALB / TBIL / TC / TG / TP / gamma-GTP: tissue Plasma
[1] = 0 mg/kg, 3 h, dose level Control
[2] = 0 mg/kg, 6 h, dose level Control
[3] = 0 mg/kg, 9 h, dose level Control
[4] = 0 mg/kg, 24 h, dose level Control

## O=C(CCCN1CCC(O)(c2ccc(Cl)cc2)CC1)c1ccc(F)cc1 [HALOPERIDOL]
[1]
  TERMINAL_BW: 208.8 g
  APTT: 16.5 s
  Bas: 0%
  Eos: 0%
  Fbg: 202 mg/dL
  Hb: 13.4 g/dL
  Ht: 40.2%
  Lym: 77.8%
  MCH: 21.8 pg
  MCHC: 33.5%
  Mono: 9.2%
  Neu: 13%
  Plat: 94.5 x10_4/uL
  RBC: 616.8 x10_4/ul
  Ret: 8.7%
  WBC: 114.5 x10_2/uL
  KIDNEY_L: 1 g
  KIDNEY_R: 1 g
  KIDNEY_TOTAL: 2 g
  LIVER: 10.1 g
  ALP: 1053.2 IU/L
  ALT: 34.4 IU/L
  AST: 64.4 IU/L
  BUN: 16 mg/dL
  CRE: 0.5 mg/dL
  Ca: 11.4 mg/dL
  Cl: 105 meq/L
  DBIL: 0.006 mg/dL
  GLC: 185.6 mg/dL
  IP: 9.4 mg/dL
  K: 5.2 meq/L
  LDH: 85 IU/L
  Na: 139 meq/L
  PL: 151.4 mg/dL
  RALB: 3.7 g/dL
  TBIL: 0.4 mg/dL
  TC: 82.8 mg/dL
  TG: 63.2 mg/dL
  TP: 5.6 g/dL
  gamma-GTP: 1.4 IU/L
[2]
  TERMINAL_BW: 200.9 g
  APTT: 16.6 s
  Bas: 0%
  Eos: 0.2%
  Fbg: 206.4 mg/dL
  Hb: 13.6 g/dL
  Ht: 40.6%
  Lym: 72%
  MCH: 21.7 pg
  MCHC: 33.4%
  Mono: 5.8%
  Neu: 22%
  Plat: 102.2 x10_4/uL
  RBC: 625.8 x10_4/ul
  Ret: 8.8%
  WBC: 95.9 x10_2/uL
  KIDNEY_L: 0.9 g
  KIDNEY_R: 1 g
  KIDNEY_TOTAL: 1.9 g
  LIVER: 9.3 g
  ALP: 862.2 IU/L
  ALT: 34.8 IU/L
  AST: 62 IU/L
  BUN: 11.4 mg/dL
  CRE: 0.5 mg/dL
  Ca: 10.7 mg/dL
  Cl: 104.8 meq/L
  DBIL: 0.036 mg/dL
  GLC: 175.2 mg/dL
  IP: 10.1 mg/dL
  K: 5.1 meq/L
  LDH: 92.4 IU/L
  Na: 137.6 meq/L
  PL: 142.8 mg/dL
  RALB: 3.7 g/dL
  TBIL: 0.3 mg/dL
  TC: 80.2 mg/dL
  TG: 47.8 mg/dL
  TP: 5.6 g/dL
  gamma-GTP: 1.4 IU/L
[3]
  TERMINAL_BW: 199.3 g
  APTT: 16.7 s
  Bas: 0%
  Eos: 0.8%
  Fbg: 205.4 mg/dL
  Hb: 13.7 g/dL
  Ht: 41%
  Lym: 68.6%
  MCH: 22.1 pg
  MCHC: 33.3%
  Mono: 6.6%
  Neu: 24%
  Plat: 103.6 x10_4/uL
  RBC: 619.2 x10_4/ul
  Ret: 8.3%
  WBC: 96.1 x10_2/uL
  KIDNEY_L: 0.9 g
  KIDNEY_R: 0.9 g
  KIDNEY_TOTAL: 1.8 g
  LIVER: 8.6 g
  ALP: 860.2 IU/L
  ALT: 32.6 IU/L
  AST: 59.8 IU/L
  BUN: 12.2 mg/dL
  CRE: 0.5 mg/dL
  Ca: 10.5 mg/dL
  Cl: 106.2 meq/L
  DBIL: 0.024 mg/dL
  GLC: 188.4 mg/dL
  IP: 10.8 mg/dL
  K: 5.1 meq/L
  LDH: 83.8 IU/L
  Na: 138 meq/L
  PL: 134.4 mg/dL
  RALB: 3.8 g/dL
  TBIL: 0.4 mg/dL
  TC: 76.8 mg/dL
  TG: 35.4 mg/dL
  TP: 5.5 g/dL
  gamma-GTP: 1.8 IU/L
[4]
  TERMINAL_BW: 214.4 g
  APTT: 16.2 s
  Bas: 0%
  Eos: 0.8%
  Fbg: 205.8 mg/dL
  Hb: 13.3 g/dL
  Ht: 39.3%
  Lym: 75.4%
  MCH: 22 pg
  MCHC: 33.9%
  Mono: 6.8%
  Neu: 17%
  Plat: 107.6 x10_4/uL
  RBC: 605.8 x10_4/ul
  Ret: 8.9%
  WBC: 82.8 x10_2/uL
  KIDNEY_L: 0.9 g
  KIDNEY_R: 1 g
  KIDNEY_TOTAL: 1.9 g
  LIVER: 10.6 g
  ALP: 1093.2 IU/L
  ALT: 43 IU/L
  AST: 64.8 IU/L
  BUN: 19.2 mg/dL
  CRE: 0.6 mg/dL
  Ca: 11 mg/dL
  Cl: 104.6 meq/L
  DBIL: 0.028 mg/dL
  GLC: 185.4 mg/dL
  IP: 8.2 mg/dL
  K: 4.9 meq/L
  LDH: 82.6 IU/L
  Na: 138.8 meq/L
  PL: 165.4 mg/dL
  RALB: 3.7 g/dL
  TBIL: 0.4 mg/dL
  TC: 87.2 mg/dL
  TG: 94.8 mg/dL
  TP: 5.7 g/dL
  gamma-GTP: 1 IU/L
3 mg/kg, 3 h, dose level Low
  TERMINAL_BW: 203.1 g
  APTT: 16.9 s
  Bas: 0%
  Eos: 0.8%
  Fbg: 205.8 mg/dL
  Hb: 13.5 g/dL
  Ht: 40.4%
  Lym: 70.4%
  MCH: 21.8 pg
  MCHC: 33.5%
  Mono: 8.2%
  Neu: 20.6%
  Plat: 101.1 x10_4/uL
  RBC: 620.8 x10_4/ul
  Ret: 8.3%
  WBC: 102.1 x10_2/uL
  KIDNEY_L: 0.9 g
  KIDNEY_R: 0.9 g
  KIDNEY_TOTAL: 1.8 g
  LIVER: 9.6 g
  ALP: 1074.8 IU/L
  ALT: 42.2 IU/L
  AST: 61.2 IU/L
  BUN: 12.6 mg/dL
  CRE: 0.5 mg/dL
  Ca: 11.1 mg/dL
  Cl: 105.2 meq/L
  DBIL: 0.028 mg/dL
  GLC: 202.8 mg/dL
  IP: 10.4 mg/dL
  K: 4.7 meq/L
  LDH: 92.6 IU/L
  Na: 139.4 meq/L
  PL: 141.2 mg/dL
  RALB: 3.6 g/dL
  TBIL: 0.3 mg/dL
  TC: 78.6 mg/dL
  TG: 41.6 mg/dL
  TP: 5.7 g/dL
  gamma-GTP: 1.4 IU/L
3 mg/kg, 6 h, dose level Low
  TERMINAL_BW: 200.5 g
  APTT: 16.6 s
  Bas: 0%
  Eos: 0.6%
  Fbg: 205.2 mg/dL
  Hb: 13.5 g/dL
  Ht: 40.5%
  Lym: 77%
  MCH: 21.7 pg
  MCHC: 33.3%
  Mono: 7.2%
  Neu: 15.2%
  Plat: 103.7 x10_4/uL
  RBC: 619.8 x10_4/ul
  Ret: 8.8%
  WBC: 90.9 x10_2/uL
  KIDNEY_L: 0.9 g
  KIDNEY_R: 0.9 g
  KIDNEY_TOTAL: 1.9 g
  LIVER: 9 g
  ALP: 897.8 IU/L
  ALT: 34.4 IU/L
  AST: 57.2 IU/L
  BUN: 9.6 mg/dL
  CRE: 0.4 mg/dL
  Ca: 10.6 mg/dL
  Cl: 105.8 meq/L
  DBIL: 0.034 mg/dL
  GLC: 184.4 mg/dL
  IP: 10.6 mg/dL
  K: 4.9 meq/L
  LDH: 81.6 IU/L
  Na: 139.2 meq/L
  PL: 142 mg/dL
  RALB: 3.6 g/dL
  TBIL: 0.3 mg/dL
  TC: 84.4 mg/dL
  TG: 32.4 mg/dL
  TP: 5.4 g/dL
  gamma-GTP: 1.6 IU/L
3 mg/kg, 9 h, dose level Low
  TERMINAL_BW: 199.3 g
  APTT: 16.8 s
  Bas: 0%
  Eos: 0.6%
  Fbg: 204.8 mg/dL
  Hb: 13.6 g/dL
  Ht: 40.5%
  Lym: 70.4%
  MCH: 22 pg
  MCHC: 33.6%
  Mono: 9.6%
  Neu: 19.4%
  Plat: 102.7 x10_4/uL
  RBC: 621.4 x10_4/ul
  Ret: 9.5%
  WBC: 60.9 x10_2/uL
  KIDNEY_L: 0.9 g
  KIDNEY_R: 1 g
  KIDNEY_TOTAL: 1.9 g
  LIVER: 8.5 g
  ALP: 810.6 IU/L
  ALT: 28.4 IU/L
  AST: 56.6 IU/L
  BUN: 10.2 mg/dL
  CRE: 0.5 mg/dL
  Ca: 10.2 mg/dL
  Cl: 106.6 meq/L
  DBIL: 0.018 mg/dL
  GLC: 183.4 mg/dL
  IP: 10.6 mg/dL
  K: 4.6 meq/L
  LDH: 84 IU/L
  Na: 139.2 meq/L
  PL: 126.6 mg/dL
  RALB: 3.6 g/dL
  TBIL: 0.4 mg/dL
  TC: 71 mg/dL
  TG: 31.2 mg/dL
  TP: 5.5 g/dL
  gamma-GTP: 1.8 IU/L
3 mg/kg, 24 h, dose level Low
  TERMINAL_BW: 213.8 g
  APTT: 15.9 s
  Bas: 0%
  Eos: 1.2%
  Fbg: 198.8 mg/dL
  Hb: 13.6 g/dL
  Ht: 40.8%
  Lym: 75.6%
  MCH: 22.6 pg
  MCHC: 33.3%
  Mono: 6%
  Neu: 17.2%
  Plat: 105.6 x10_4/uL
  RBC: 601 x10_4/ul
  Ret: 9.4%
  WBC: 75.9 x10_2/uL
  KIDNEY_L: 1 g
  KIDNEY_R: 1 g
  KIDNEY_TOTAL: 1.9 g
  LIVER: 11.3 g
  ALP: 957.8 IU/L
  ALT: 35 IU/L
  AST: 59.2 IU/L
  BUN: 21.2 mg/dL
  CRE: 0.6 mg/dL
  Ca: 11.3 mg/dL
  Cl: 105.4 meq/L
  DBIL: 0.026 mg/dL
  GLC: 180.8 mg/dL
  IP: 7.9 mg/dL
  K: 5 meq/L
  LDH: 104.8 IU/L
  Na: 139.2 meq/L
  PL: 156.6 mg/dL
  RALB: 3.8 g/dL
  TBIL: 0.4 mg/dL
  TC: 80.6 mg/dL
  TG: 102.4 mg/dL
  TP: 5.9 g/dL
